Reference: patent US20240226228A1, “ANTIMICROBIAL PEPTOID HAVING IMPROVED SELECTIVITY AND ANTIMICROBIAL COMPOSITION COMPRISING SAME” (priority 2021, published 2024)
In brackets after ≈: the same amount, converted by molar mass. Like-named read-outs stand apart in the source and are kept apart here. Where a SMILES comes first, the peptide text is derived from it. [ ]: non-standard residue; d: D form. Gly(N(CH2)2(3-indolyl)) = O=C(O)CNCCc1c[nH]c2ccccc12; Gly(N-CH2CH2-imidazol-4-yl) = O=C(O)CNCCc1c[nH]cn1; Nspe = C[C@H](NCC(=O)O)c1ccccc1; Nphe = O=C(O)CNCc1ccccc1; Nlys = NCCCCNCC(=O)O

Columns and labels:
[1] = tested on: red blood cells; assay: Hemolysis assay; assay type: cell-based, Sprague-Dawley mouse
In short: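 Peptoid is mixed with 10% (v/v) PBS-washed erythrocytes (male Sprague-Dawley […], 13 weeks) and held 1 h at 37 °C. Hemolysis is calculated from 540 nm absorbance of the supernatant, with PBS as 0% and Triton X-100 as 100%.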

[2] = tested on: E. coli ATCC25922
In short: (§1)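 Cation-adjusted MHB2 cultures (18 h, subcultured 4 h) adjusted to 2×10^5–5×10^5 CFU/mL in medium with 0.02% BSA and 0.001% acetic acid.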

[3] = tested on: S. aureus ATCC 25923
In short: as §1

[4] = Tables 11-13, 24 hours at 37° C., maximum concentration 25 μM

Row | MIC E. coli ATCC25922 ([2]; ATCC25922) [µM] | MIC S. aureus ATCC 25923 ([3]; ATCC 25923) [µM] | Compound | HC10 [1] | HC50 [1] | Hmax (100 μM) [1] | MIC E. coli ATCC25922 [2, 4] [µM] | MIC S. aureus ATCC 25923 [3, 4] [µM] | HD10 [1] | HD50 [1]
1 |  |  | C[C@@H](c1ccccc1)N(CC(=O)N(CCCCN)CC(=O)N(CCc1c[nH]c2ccccc12)CC(=O)N(CCc1c[nH]c2ccccc12)CC(N)=O)C(=O)CN(CCCCN)C(=O)CN(CCCCN)C(=O)CN(Cc1ccccc1)C(=O)CN(Cc1ccccc1)C(=O)CN(CCCCN)C(=O)CN(C(=O)CN(C(=O)CNCCCCN)[C@@H](C)c1ccccc1)[C@@H](C)c1ccccc1 [Peptoid 40] (H-[Nlys][Nspe][Nspe][Nlys][Nphe][Nphe][Nlys][Nlys][Nspe][Nlys][Gly(N(CH2)2(3-indolyl))][Gly(N(CH2)2(3-indolyl))]-NH2) | >100/>100 μM | >100/>100 μM | 8.9 ± 0.2% | 12.5 (≈ 23 µg/mL) | 12.5 (≈ 23 µg/mL) |  | 
2 |  |  | C[C@@H](c1ccccc1)N(CC(=O)N(CCCCN)CC(=O)N(CCc1c[nH]c2ccccc12)CC(=O)N(CCc1c[nH]c2ccccc12)CC(N)=O)C(=O)CN(CCCCN)C(=O)CN(CCCCN)C(=O)CN(C(=O)CN(C(=O)CN(CCCCN)C(=O)CN(Cc1ccccc1)C(=O)CN(Cc1ccccc1)C(=O)CNCCCCN)[C@@H](C)c1ccccc1)[C@@H](C)c1ccccc1 [Peptoid 41] (H-[Nlys][Nphe][Nphe][Nlys][Nspe][Nspe][Nlys][Nlys][Nspe][Nlys][Gly(N(CH2)2(3-indolyl))][Gly(N(CH2)2(3-indolyl))]-NH2) | >100/>100 μM | >100/>100 μM | 7.1 ± 0.1% | 25 (≈ 45.9 µg/mL) | 6.3 (≈ 11.6 µg/mL) |  | 
3 |  |  | C[C@@H](c1ccccc1)N(CC(=O)N(CCCCN)CC(=O)N(CC(=O)N(CC(=O)N(CCCCN)CC(=O)N(CC(=O)N(CC(=O)N(CCCCN)CC(=O)N(CC(=O)N(CC(N)=O)Cc1ccccc1)Cc1ccccc1)[C@@H](C)c1ccccc1)[C@@H](C)c1ccccc1)[C@@H](C)c1ccccc1)[C@@H](C)c1ccccc1)C(=O)CN(C(=O)CNCCCCN)[C@@H](C)c1ccccc1 [Peptoid 44] (H-[Nlys][Nspe][Nspe][Nlys][Nspe][Nspe][Nlys][Nspe][Nspe][Nlys][Nphe][Nphe]-NH2) | 6.3 µM | 28.6 µM | 97.9 ± 3.7% | 6.3 (≈ 11.3 µg/mL) | 1.6 (≈ 2.87 µg/mL) |  | 
4 |  |  | C[C@@H](c1ccccc1)N(CC(=O)N(CCCCN)CC(=O)N(CC(=O)N(CC(N)=O)Cc1ccccc1)Cc1ccccc1)C(=O)CN(CCCCN)C(=O)CN(CCCCN)C(=O)CN(C(=O)CN(C(=O)CN(CCCCN)C(=O)CN(C(=O)CN(C(=O)CNCCCCN)[C@@H](C)c1ccccc1)[C@@H](C)c1ccccc1)[C@@H](C)c1ccccc1)[C@@H](C)c1ccccc1 [Peptoid 45] (H-[Nlys][Nspe][Nspe][Nlys][Nspe][Nspe][Nlys][Nlys][Nspe][Nlys][Nphe][Nphe]-NH2) | >100/>100 μM | >100/>100 μM | 4.5 ± 0.2% | >25 | 25 (≈ 44 µg/mL) |  | 
5 |  |  | C[C@@H](c1ccccc1)N(CC(N)=O)C(=O)CN(C(=O)CN(CCCCN)C(=O)CN(C(=O)CN(C(=O)CN(CCCCN)C(=O)CN(C(=O)CN(C(=O)CN(CCCCN)C(=O)CN(Cc1ccccc1)C(=O)CN(Cc1ccccc1)C(=O)CNCCCCN)[C@@H](C)c1ccccc1)[C@@H](C)c1ccccc1)[C@@H](C)c1ccccc1)[C@@H](C)c1ccccc1)[C@@H](C)c1ccccc1 [Peptoid 46] | 6.9 µM | 36.5 µM | 90.8 ± 2.7% | 6.3 (≈ 11.3 µg/mL) | 0.8 (≈ 1.43 µg/mL) |  | 
6 |  |  | C[C@@H](c1ccccc1)N(CC(N)=O)C(=O)CN(CCCCN)C(=O)CN(CCCCN)C(=O)CN(C(=O)CN(C(=O)CN(CCCCN)C(=O)CN(C(=O)CN(C(=O)CN(CCCCN)C(=O)CN(Cc1ccccc1)C(=O)CN(Cc1ccccc1)C(=O)CNCCCCN)[C@@H](C)c1ccccc1)[C@@H](C)c1ccccc1)[C@@H](C)c1ccccc1)[C@@H](C)c1ccccc1 [Peptoid 47] | >100/>100 μM | >100/>100 μM | 4.8 ± 0.2% | 25 (≈ 44 µg/mL) | 12.5 (≈ 22 µg/mL) |  | 
7 |  |  | C[C@H](NCC(=O)N(CCCCN)CC(=O)N(CC(=O)N(CC(=O)N(CCCCN)CC(=O)N(CC(=O)N(CC(=O)N(CCCCN)CC(=O)N(CC(=O)N(CC(=O)N(CCCCN)CC(=O)N(CC(N)=O)[C@@H](C)c1ccccc1)[C@@H](C)c1ccccc1)[C@@H](C)c1ccccc1)[C@@H](C)c1ccccc1)[C@@H](C)c1ccccc1)[C@@H](C)c1ccccc1)[C@@H](C)c1ccccc1)c1ccccc1 [Peptoid 48] (H-[Nspe][Nlys][Nspe][Nspe][Nlys][Nspe][Nspe][Nlys][Nspe][Nspe][Nlys][Nspe]-NH2) | 25.7 µM | 48.4 µM | 79.9 ± 3.6% | 12.5 (≈ 22.7 µg/mL) | 3.1 (≈ 5.64 µg/mL) |  | 
8 | 6.3 (≈ 11.9 µg/mL) | 6.3 (≈ 11.9 µg/mL) | C[C@@H](c1ccccc1)N(CC(N)=O)C(=O)CN(CCCCN)C(=O)CN(CCCCN)C(=O)CN(C(=O)CN(C(=O)CN(CCCCN)C(=O)CN(C(=O)CN(C(=O)CN(CCCCN)C(=O)CN(CCc1c[nH]c2ccccc12)C(=O)CN(CCc1c[nH]c2ccccc12)C(=O)CNCCc1c[nH]cn1)[C@@H](C)c1ccccc1)[C@@H](C)c1ccccc1)[C@@H](C)c1ccccc1)[C@@H](C)c1ccccc1 [Peptoid 72] (H-[Gly(N-CH2CH2-imidazol-4-yl)][Gly(N(CH2)2(3-indolyl))][Gly(N(CH2)2(3-indolyl))][Nlys][Nspe][Nspe][Nlys][Nspe][Nspe][Nlys][Nlys][Nspe]-NH2) |  |  | 11.8 ± 1.1 |  |  | 88.9 | > 100.0
9 | 6.3 (≈ 11.9 µg/mL) | 3.1 (≈ 5.85 µg/mL) | C[C@@H](c1ccccc1)N(CC(N)=O)C(=O)CN(CCCCN)C(=O)CN(CCCCN)C(=O)CN(C(=O)CN(C(=O)CN(CCCCN)C(=O)CN(C(=O)CN(C(=O)CN(CCc1c[nH]cn1)C(=O)CN(CCc1c[nH]c2ccccc12)C(=O)CN(CCc1c[nH]c2ccccc12)C(=O)CNCCCCN)[C@@H](C)c1ccccc1)[C@@H](C)c1ccccc1)[C@@H](C)c1ccccc1)[C@@H](C)c1ccccc1 [Peptoid 73] (H-[Nlys][Gly(N(CH2)2(3-indolyl))][Gly(N(CH2)2(3-indolyl))][Gly(N-CH2CH2-imidazol-4-yl)][Nspe][Nspe][Nlys][Nspe][Nspe][Nlys][Nlys][Nspe]-NH2) |  |  | 10.0 ± 0.3 |  |  | >100.0/>100.0 | >100.0/>100.0
10 | 6.3 (≈ 11.9 µg/mL) | 3.1 (≈ 5.85 µg/mL) | C[C@@H](c1ccccc1)N(CC(N)=O)C(=O)CN(CCCCN)C(=O)CN(CCCCN)C(=O)CN(C(=O)CN(C(=O)CN(CCc1c[nH]cn1)C(=O)CN(C(=O)CN(C(=O)CN(CCCCN)C(=O)CN(CCc1c[nH]c2ccccc12)C(=O)CN(CCc1c[nH]c2ccccc12)C(=O)CNCCCCN)[C@@H](C)c1ccccc1)[C@@H](C)c1ccccc1)[C@@H](C)c1ccccc1)[C@@H](C)c1ccccc1 [Peptoid 74] (H-[Nlys][Gly(N(CH2)2(3-indolyl))][Gly(N(CH2)2(3-indolyl))][Nlys][Nspe][Nspe][Gly(N-CH2CH2-imidazol-4-yl)][Nspe][Nspe][Nlys][Nlys][Nspe]-NH2) |  |  | 14.2 ± 0.3 |  |  | 81.7 | > 100.0
11 | 6.3 (≈ 11.9 µg/mL) | 6.3 (≈ 11.9 µg/mL) | C[C@@H](c1ccccc1)N(CC(N)=O)C(=O)CN(CCCCN)C(=O)CN(CCc1c[nH]cn1)C(=O)CN(C(=O)CN(C(=O)CN(CCCCN)C(=O)CN(C(=O)CN(C(=O)CN(CCCCN)C(=O)CN(CCc1c[nH]c2ccccc12)C(=O)CN(CCc1c[nH]c2ccccc12)C(=O)CNCCCCN)[C@@H](C)c1ccccc1)[C@@H](C)c1ccccc1)[C@@H](C)c1ccccc1)[C@@H](C)c1ccccc1 [Peptoid 75] (H-[Nlys][Gly(N(CH2)2(3-indolyl))][Gly(N(CH2)2(3-indolyl))][Nlys][Nspe][Nspe][Nlys][Nspe][Nspe][Gly(N-CH2CH2-imidazol-4-yl)][Nlys][Nspe]-NH2) |  |  | 18.3 ± 1.1 |  |  | 68.0 | > 100.0
12 | 6.3 (≈ 11.9 µg/mL) | 6.3 (≈ 11.9 µg/mL) | C[C@@H](c1ccccc1)N(CC(N)=O)C(=O)CN(CCc1c[nH]cn1)C(=O)CN(CCCCN)C(=O)CN(C(=O)CN(C(=O)CN(CCCCN)C(=O)CN(C(=O)CN(C(=O)CN(CCCCN)C(=O)CN(CCc1c[nH]c2ccccc12)C(=O)CN(CCc1c[nH]c2ccccc12)C(=O)CNCCCCN)[C@@H](C)c1ccccc1)[C@@H](C)c1ccccc1)[C@@H](C)c1ccccc1)[C@@H](C)c1ccccc1 [Peptoid 76] (H-[Nlys][Gly(N(CH2)2(3-indolyl))][Gly(N(CH2)2(3-indolyl))][Nlys][Nspe][Nspe][Nlys][Nspe][Nspe][Nlys][Gly(N-CH2CH2-imidazol-4-yl)][Nspe]-NH2) |  |  | 10.1 ± 0.7 |  |  | >100.0/>100.0 | >100.0/>100.0
13 | 12.5 (≈ 23.6 µg/mL) | 6.3 (≈ 11.9 µg/mL) | C[C@@H](c1ccccc1)N(CC(=O)N(CCc1c[nH]cn1)CC(=O)N(CCc1c[nH]c2ccccc12)CC(=O)N(CCc1c[nH]c2ccccc12)CC(N)=O)C(=O)CN(CCCCN)C(=O)CN(CCCCN)C(=O)CN(C(=O)CN(C(=O)CN(CCCCN)C(=O)CN(C(=O)CN(C(=O)CNCCCCN)[C@@H](C)c1ccccc1)[C@@H](C)c1ccccc1)[C@@H](C)c1ccccc1)[C@@H](C)c1ccccc1 [Peptoid 77] (H-[Nlys][Nspe][Nspe][Nlys][Nspe][Nspe][Nlys][Nlys][Nspe][Gly(N-CH2CH2-imidazol-4-yl)][Gly(N(CH2)2(3-indolyl))][Gly(N(CH2)2(3-indolyl))]-NH2) |  |  | 3.2 ± 0.3 |  |  | >100.0/>100.0 | >100.0/>100.0
